Measurements published in ChEMBL document CHEMBL5465560, “Selectivity Literature for EUbOPEN Chemogenomic Library” (2024).

Columns and labels:
[1] = biological target: T1, cGMP-dependent protein kinase 2 (Homo sapiens) (UniProt Q13237); assay: Selectivity interaction (KinomeScan (DiscoverX)) EUB0000092b PRKG2; conditions: at 10 µM
T1 sequence (whole entry): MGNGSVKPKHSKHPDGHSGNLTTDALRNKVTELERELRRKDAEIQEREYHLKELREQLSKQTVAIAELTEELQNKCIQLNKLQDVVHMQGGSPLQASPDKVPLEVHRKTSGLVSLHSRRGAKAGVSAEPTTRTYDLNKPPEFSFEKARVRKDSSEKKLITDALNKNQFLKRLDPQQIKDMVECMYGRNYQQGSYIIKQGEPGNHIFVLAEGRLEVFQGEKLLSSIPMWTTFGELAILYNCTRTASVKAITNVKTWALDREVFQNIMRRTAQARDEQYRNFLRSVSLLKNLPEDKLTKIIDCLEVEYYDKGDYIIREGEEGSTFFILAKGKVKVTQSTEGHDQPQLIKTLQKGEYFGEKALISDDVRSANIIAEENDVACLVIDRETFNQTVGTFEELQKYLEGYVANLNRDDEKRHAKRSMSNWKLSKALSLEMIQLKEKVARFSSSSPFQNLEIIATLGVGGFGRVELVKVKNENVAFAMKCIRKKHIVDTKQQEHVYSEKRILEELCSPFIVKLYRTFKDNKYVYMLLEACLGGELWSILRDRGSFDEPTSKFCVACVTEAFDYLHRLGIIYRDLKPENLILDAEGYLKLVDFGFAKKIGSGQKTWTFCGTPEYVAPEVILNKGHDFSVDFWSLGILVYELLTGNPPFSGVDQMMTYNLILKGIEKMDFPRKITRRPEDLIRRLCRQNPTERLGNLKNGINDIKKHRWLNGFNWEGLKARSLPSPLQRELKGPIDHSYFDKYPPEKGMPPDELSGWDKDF

[2] = biological target: T2, Dual specificity mitogen-activated protein kinase kinase 7 (Homo sapiens) (UniProt O14733); assay: Selectivity interaction (KinomeScan (DiscoverX)) EUB0000092b MAP2K7; conditions: at 10 µM
T2 sequence (whole entry): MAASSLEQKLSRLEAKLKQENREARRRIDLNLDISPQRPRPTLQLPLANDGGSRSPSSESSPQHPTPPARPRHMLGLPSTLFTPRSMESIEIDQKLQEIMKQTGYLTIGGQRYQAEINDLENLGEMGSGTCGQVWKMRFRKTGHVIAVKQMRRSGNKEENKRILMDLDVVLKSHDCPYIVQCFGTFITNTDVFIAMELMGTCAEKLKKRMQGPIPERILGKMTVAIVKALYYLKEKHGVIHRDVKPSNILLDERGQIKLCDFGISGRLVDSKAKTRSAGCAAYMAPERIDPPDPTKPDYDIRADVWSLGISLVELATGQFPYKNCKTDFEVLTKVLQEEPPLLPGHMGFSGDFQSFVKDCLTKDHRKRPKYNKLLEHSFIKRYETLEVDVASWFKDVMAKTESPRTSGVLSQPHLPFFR

Misshapen-like kinase 1 = Misshapen-like kinase 1 (Homo sapiens, UniProt Q8N4C8); assay: Selectivity interaction (KinomeScan (DiscoverX)) EUB0000655a MINK1; conditions: at 10 µM
Misshapen-like kinase 1, sequence (Q8N4C8 whole entry, looked up): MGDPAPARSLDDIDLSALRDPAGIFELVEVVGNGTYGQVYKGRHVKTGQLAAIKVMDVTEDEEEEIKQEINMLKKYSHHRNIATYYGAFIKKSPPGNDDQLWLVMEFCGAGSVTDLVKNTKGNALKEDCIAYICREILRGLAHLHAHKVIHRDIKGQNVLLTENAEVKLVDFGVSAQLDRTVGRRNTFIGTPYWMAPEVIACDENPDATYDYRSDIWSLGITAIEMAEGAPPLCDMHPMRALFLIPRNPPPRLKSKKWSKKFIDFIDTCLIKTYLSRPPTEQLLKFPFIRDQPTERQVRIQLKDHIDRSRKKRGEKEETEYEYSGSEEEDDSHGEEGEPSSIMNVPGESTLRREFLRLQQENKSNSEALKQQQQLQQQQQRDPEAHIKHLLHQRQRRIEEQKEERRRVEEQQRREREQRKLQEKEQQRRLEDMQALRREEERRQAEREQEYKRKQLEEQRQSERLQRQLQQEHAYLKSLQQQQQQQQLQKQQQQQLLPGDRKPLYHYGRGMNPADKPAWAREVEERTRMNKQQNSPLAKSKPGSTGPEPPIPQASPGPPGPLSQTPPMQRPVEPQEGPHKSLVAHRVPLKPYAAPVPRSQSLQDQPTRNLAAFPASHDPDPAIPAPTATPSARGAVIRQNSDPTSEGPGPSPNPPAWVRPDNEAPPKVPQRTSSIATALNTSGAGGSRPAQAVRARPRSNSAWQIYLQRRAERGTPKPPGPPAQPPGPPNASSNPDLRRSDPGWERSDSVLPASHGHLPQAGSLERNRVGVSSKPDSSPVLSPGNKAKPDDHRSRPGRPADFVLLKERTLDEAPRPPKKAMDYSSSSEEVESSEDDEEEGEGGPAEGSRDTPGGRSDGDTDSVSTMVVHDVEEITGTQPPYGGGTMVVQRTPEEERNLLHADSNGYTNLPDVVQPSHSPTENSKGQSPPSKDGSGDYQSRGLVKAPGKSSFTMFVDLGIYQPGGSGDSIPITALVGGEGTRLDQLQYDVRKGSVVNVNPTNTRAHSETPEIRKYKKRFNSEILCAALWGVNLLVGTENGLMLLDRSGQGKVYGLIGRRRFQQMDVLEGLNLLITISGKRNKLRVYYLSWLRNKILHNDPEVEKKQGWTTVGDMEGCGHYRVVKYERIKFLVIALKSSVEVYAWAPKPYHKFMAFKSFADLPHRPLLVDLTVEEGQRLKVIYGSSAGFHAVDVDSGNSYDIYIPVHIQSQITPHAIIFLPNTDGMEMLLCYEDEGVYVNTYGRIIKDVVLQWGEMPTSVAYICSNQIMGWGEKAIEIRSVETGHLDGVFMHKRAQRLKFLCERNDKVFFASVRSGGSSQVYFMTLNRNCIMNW

[3] = biological target: Mitogen-activated protein kinase kinase kinase 11 (Homo sapiens) (UniProt Q16584); assay: Selectivity interaction (Kinase panel (KiNativ target engagement assay in Jurkat cells)) EUB0001635a MAP3K11; type: cell-based; conditions: Selectivity number of off-targets 0.0, Selectivity number of targets 233.0, Source Knowledge https://www.sciencedirect.com/science/article/pii/S2451945619300674?via%3Dihub, at 1 µM
[4] = biological target: Bromodomain adjacent to zinc finger domain protein 2B (Homo sapiens) (UniProt Q9UIF8); assay: Selectivity interaction (Bromodomain panel (DSF asssay)) EUB0000270b BAZ2B
Bromodomain adjacent to zinc finger domain protein 2B (Homo sapiens), sequence (Q9UIF8 whole entry, the tested form may be a part): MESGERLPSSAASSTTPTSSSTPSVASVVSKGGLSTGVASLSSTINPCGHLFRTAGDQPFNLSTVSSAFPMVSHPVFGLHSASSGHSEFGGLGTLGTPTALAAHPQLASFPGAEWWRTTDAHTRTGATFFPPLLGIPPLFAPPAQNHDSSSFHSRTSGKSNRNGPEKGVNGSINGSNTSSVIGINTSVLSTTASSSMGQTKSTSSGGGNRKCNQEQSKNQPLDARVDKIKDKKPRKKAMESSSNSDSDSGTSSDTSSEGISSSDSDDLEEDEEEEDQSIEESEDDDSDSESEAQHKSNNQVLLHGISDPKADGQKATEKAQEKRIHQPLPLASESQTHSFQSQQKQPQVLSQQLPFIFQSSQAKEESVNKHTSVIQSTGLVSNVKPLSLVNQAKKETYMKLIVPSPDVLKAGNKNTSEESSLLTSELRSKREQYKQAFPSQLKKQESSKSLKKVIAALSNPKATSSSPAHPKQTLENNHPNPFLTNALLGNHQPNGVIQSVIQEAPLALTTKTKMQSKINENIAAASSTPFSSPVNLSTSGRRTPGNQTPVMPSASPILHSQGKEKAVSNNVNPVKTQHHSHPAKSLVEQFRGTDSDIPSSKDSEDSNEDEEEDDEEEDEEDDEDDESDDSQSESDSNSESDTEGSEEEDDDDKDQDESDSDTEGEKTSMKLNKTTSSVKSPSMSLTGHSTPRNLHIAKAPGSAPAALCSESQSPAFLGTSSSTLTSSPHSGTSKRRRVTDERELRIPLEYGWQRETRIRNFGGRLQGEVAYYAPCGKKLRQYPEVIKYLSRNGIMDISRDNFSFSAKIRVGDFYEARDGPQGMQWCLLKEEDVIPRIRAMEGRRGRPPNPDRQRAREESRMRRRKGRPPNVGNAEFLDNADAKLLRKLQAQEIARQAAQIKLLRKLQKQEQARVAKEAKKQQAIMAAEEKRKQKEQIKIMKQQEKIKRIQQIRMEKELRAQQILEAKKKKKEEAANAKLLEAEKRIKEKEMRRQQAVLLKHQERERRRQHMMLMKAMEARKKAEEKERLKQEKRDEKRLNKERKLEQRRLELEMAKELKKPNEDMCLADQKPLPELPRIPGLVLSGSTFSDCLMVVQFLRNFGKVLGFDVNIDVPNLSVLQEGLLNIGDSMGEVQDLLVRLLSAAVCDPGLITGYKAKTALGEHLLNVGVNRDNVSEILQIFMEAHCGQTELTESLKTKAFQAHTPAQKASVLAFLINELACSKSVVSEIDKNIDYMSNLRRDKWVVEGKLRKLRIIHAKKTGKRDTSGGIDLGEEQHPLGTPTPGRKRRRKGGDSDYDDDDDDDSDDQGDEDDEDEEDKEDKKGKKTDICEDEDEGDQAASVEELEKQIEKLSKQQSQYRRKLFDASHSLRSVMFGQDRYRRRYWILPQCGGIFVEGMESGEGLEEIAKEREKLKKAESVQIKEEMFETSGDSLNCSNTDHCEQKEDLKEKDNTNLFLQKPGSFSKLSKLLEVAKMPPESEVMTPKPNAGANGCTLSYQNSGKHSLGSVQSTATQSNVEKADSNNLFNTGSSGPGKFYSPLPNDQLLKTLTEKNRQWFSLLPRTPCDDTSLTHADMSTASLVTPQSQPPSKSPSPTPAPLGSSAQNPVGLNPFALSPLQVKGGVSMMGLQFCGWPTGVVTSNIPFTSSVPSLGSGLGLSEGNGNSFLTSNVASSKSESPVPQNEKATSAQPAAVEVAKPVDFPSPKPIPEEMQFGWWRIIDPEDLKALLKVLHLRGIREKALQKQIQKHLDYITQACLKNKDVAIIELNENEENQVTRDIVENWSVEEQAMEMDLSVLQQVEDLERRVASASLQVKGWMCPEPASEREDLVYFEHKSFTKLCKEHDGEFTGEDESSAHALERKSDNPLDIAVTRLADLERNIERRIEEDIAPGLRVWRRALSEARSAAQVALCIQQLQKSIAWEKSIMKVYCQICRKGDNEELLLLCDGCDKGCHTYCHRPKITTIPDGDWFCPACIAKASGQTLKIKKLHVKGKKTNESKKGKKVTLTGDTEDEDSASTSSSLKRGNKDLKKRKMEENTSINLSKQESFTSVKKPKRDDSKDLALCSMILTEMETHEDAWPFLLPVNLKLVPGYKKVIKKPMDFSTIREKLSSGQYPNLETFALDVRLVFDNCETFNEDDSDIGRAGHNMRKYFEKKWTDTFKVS

[5] = biological target: Rho-associated protein kinase 1 (Homo sapiens) (UniProt Q13464); assay: Selectivity interaction (KinomeScan (DiscoverX)) EUB0001049a ROCK1; conditions: at 1 µM
[6] = biological target: T3, SNF-related serine/threonine-protein kinase (Homo sapiens) (UniProt Q9NRH2); assay: Selectivity interaction (KinomeScan (DiscoverX)) EUB0000045b SNRK
T3 sequence (whole entry): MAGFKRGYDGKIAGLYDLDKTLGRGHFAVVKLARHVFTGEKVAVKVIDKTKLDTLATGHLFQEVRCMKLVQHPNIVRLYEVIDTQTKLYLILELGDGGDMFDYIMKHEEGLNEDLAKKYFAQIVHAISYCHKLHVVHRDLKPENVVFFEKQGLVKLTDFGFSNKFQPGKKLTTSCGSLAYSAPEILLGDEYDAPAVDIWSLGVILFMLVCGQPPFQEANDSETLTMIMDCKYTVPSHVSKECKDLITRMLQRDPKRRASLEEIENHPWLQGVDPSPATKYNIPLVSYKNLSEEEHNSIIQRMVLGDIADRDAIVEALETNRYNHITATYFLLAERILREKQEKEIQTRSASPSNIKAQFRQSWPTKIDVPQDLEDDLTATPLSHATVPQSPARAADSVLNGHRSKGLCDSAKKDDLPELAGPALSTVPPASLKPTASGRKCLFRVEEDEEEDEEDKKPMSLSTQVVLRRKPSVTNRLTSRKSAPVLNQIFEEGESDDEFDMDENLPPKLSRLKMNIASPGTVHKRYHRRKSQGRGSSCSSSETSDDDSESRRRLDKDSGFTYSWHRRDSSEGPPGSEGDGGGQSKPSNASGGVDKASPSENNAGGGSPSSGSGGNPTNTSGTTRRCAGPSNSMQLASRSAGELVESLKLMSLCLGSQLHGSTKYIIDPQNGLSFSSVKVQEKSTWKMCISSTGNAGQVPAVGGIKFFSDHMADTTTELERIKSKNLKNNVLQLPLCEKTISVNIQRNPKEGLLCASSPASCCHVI

[7] = biological target: RAC-alpha serine/threonine-protein kinase (Homo sapiens, UniProt P31749); assay: Selectivity interaction (Kinase screening (Nanosyn)) EUB0000604a AKT1
RAC-alpha serine/threonine-protein kinase, sequence (P31749 whole entry): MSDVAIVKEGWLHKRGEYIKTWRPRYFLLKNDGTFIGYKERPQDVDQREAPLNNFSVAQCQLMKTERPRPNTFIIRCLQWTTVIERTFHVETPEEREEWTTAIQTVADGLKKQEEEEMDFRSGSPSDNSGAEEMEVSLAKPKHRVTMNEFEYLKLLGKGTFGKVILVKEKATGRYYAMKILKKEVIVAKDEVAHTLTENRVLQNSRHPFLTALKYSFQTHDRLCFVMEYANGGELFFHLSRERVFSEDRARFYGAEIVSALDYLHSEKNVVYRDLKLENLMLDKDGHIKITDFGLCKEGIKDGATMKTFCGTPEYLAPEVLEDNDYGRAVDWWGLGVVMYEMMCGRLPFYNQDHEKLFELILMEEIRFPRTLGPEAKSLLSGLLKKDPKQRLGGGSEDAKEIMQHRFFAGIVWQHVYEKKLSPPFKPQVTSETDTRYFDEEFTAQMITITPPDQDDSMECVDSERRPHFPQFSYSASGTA

[8] = biological target: Ribosomal protein S6 kinase alpha-4 (Homo sapiens) (UniProt O75676); assay: Selectivity interaction (Kinase screening (Nanosyn)) EUB0000604a RPS6KA4
Ribosomal protein S6 kinase alpha-4 (Homo sapiens), sequence (O75676 whole entry, looked up): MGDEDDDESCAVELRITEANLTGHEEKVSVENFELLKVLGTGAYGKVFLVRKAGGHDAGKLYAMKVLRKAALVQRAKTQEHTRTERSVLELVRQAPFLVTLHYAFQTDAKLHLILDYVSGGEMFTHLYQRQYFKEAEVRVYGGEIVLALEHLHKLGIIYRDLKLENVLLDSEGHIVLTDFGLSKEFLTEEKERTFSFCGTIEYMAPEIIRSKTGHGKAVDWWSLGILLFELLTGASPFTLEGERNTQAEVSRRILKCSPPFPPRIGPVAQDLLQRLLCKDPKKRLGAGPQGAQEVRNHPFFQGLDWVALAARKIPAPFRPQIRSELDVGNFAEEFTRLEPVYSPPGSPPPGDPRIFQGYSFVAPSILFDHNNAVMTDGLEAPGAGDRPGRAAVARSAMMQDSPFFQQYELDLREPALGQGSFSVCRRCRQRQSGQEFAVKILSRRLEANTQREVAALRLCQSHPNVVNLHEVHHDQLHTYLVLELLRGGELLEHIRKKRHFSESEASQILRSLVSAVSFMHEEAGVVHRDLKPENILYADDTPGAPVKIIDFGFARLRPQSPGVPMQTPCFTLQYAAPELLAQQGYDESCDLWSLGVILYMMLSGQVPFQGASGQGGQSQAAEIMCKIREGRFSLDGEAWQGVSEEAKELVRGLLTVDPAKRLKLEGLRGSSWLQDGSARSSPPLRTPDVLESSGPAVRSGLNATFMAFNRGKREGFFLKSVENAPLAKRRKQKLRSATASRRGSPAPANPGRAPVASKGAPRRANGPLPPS

CCC(=O)N1CCN(c2ccc(-n3c(=O)ccc4cnc5ccc(-c6cnc7ccccc7c6)cc5c43)cc2C(F)(F)F)CC1
% of control [1]: 78%
% of control [2]: 100%

CN(C)CCOc1ccc(-c2nc(-c3ccncc3)c(-c3ccc4c(c3)CC/C4=N\O)[nH]2)cc1
% of control (Misshapen-like kinase 1): 6%

C=CC(=O)Nc1ccc(C(=O)Nc2[nH]nc3c2CN(C(=O)N[C@H](CN(C)C)c2ccccc2)C3(C)C)cc1
% of engagement [3]: -1.9%

Cc1cc(CN)cc(C)c1-c1ncn(C)c1-c1cncn1C
dTM [4]: -0.9 K

COc1cc(Nc2nc(C)cc(-c3cnn4nc(OC)ccc34)n2)cc(C(F)(F)F)c1
% of control [5]: 99%

C=CC(=O)Nc1cc(-n2c(=O)ccc3cnc4ccc(-c5ccc(NS(C)(=O)=O)cc5)cc4c32)ccc1C
% of control ([6]; at 1 µM): 100%
% of control ([6]; at 10 µM): 58%

Cc1cnc(Nc2ccc(F)cc2Cl)nc1-c1c[nH]c(C(=O)N[C@H](CO)c2cccc(Cl)c2)c1
% of inhibition [7]: 0%
% of inhibition [8]: 6%
